Experimental data reported in patent EP3496534B1, “LIQUID CONCENTRATE FOR PRESERVATION” (Ashland Industries Europe GmbH, priority 2016, dated 2018).
“Also recorded” adds a separate entry of the source. Each block holds one compound with its values, some of them ahead of it.

Assays:
Assay type in all cases: physicochemical
[1] = Solubility of diols in fully demineralized water
[2] = Solubility of mixture A + diols; conditions: 10g of substance added to 90g of mixture A
Description: 10g of each of the following substances was added to 90g of mixture A to obtain solutions (Table 3).

[3] = Surface tension of mixture A with water or diols; conditions: for surface tension (change against addition of 10 parts of water): 10 parts added to 90 parts of mixture A, application concentration of 1% in water; for Surface tension, 1% in water, mN/m: 90.0 parts mixture A + 10.0 parts of the substance
Description: The surface tension of mixtures of 90 parts of mixture A from example 1 with 10 parts of water or diols respectively was determined (Table 5): Table 5

[4] = Solubility of various carboxylic acid salts + diols (appearance after stirring 3 h)
Description: Various carboxylic acid salts were mixed with diols in order to test whether homogenous concentrates could be obtained: […]
In example 4c, 10 g of 1-(2-ethyl hexyl) glycerol ether or of 1,2-octanediol, was added to an aqueous potassium sorbate solution in order to obtain solutions (Table 4c). Table 4c […]
In example 4e, 10g of 1-(2-ethyl hexyl) glycerol ether or of 1,2-octanediol was added to aqueous mixtures of potassium sorbate with sodium benzoate (weight ratio 1/1) in order to obtain solutions (Table 4e) Table 4e

[5] = 10.0 diol in potassium sorbate 5.0 / sodium benzoate 5.0 / water 80.0
[6] = 10.0 diol in potassium sorbate 10.0 / sodium benzoate 10.0 / water 70.0
[7] = 10.0 diol in potassium sorbate 10.0 / water 80.0
[8] = 10.0 diol in potassium sorbate 15.0 / sodium benzoate 15.0 / water 60.0
[9] = 10.0 diol in potassium sorbate 20.0 / water 70.0
[10] = 10.0 diol in potassium sorbate 22.5 / sodium benzoate 22.5 / water 45.0
[11] = 10.0 diol in potassium sorbate 30.0 / water 60.0
[12] = 10.0 diol in potassium sorbate 45.0 / water 45.0
[13] = 10.0 diol in sodium benzoate 10.0 / water 80.0
[14] = 10.0 diol in sodium benzoate 20.0 / water 70.0
[15] = 10.0 diol in sodium benzoate 30.0 / water 60.0
[16] = 10.0 diol in sodium benzoate 45.0 / water 45.0
[17] = 10.0 parts diol in potassium formate 45.0 / fully demineralized water 45.0
[18] = 10.0 parts diol in sodium propionate 30.0 / fully demineralized water 60.0

SMILES: CCCCC(CC)COCC(O)CO (stereo not drawn) [1-(2-ethylhexyl) glycerol ether]
surface tension (change against addition of 10 parts of water) [3]: significantly decreased
Surface tension, 1% in water, mN/m [3]: 35.6 mN/m
Appearance of solution after stirring during 3 h [4, 5]: 2 phases
Appearance of solution after stirring during 3 h ([4]; 10.0 diol in potassium sorbate 7.5 / sodium benzoate 7.5 / water 75.0): 2 phases
Appearance of solution after stirring during 3 h [4, 6]: can dissolve
Appearance of solution after stirring during 3 h ([4]; 10.0 diol in potassium sorbate 10.0 / sodium benzoate 10.0 / water 70.0, listed as 1-(2-ethylhexyl)-glycerol ether): clear
Appearance of the solution after stirring during 3h [4, 7]: 2 phases
Appearance of solution after stirring during 3 h [4, 8]: can dissolve
Appearance of solution after stirring during 3 h ([4]; 10.0 diol in potassium sorbate 15.0 / sodium benzoate 15.0 / water 60.0, listed as 1-(2-ethylhexyl)-glycerol ether): clear
Appearance of the solution after stirring during 3h ([4]; 10.0 diol in potassium sorbate 15.0 / water 75.0): 2 phases
Appearance of the solution after stirring during 3h [4, 9]: clear
Appearance of the solution after stirring during 3h ([4]; 10.0 diol in potassium sorbate 20.0 / water 70.0, listed as 1-(2-ethylhexyloxy)glycerol ether): can dissolve
Appearance of solution after stirring during 3 h [4, 10]: can dissolve
Appearance of solution after stirring during 3 h ([4]; 10.0 diol in potassium sorbate 22.5 / sodium benzoate 22.5 / water 45.0, listed as 1-(2-ethylhexyl)-glycerol ether): clear
Appearance of the solution after stirring during 3h [4, 11]: clear
Appearance of the solution after stirring during 3h ([4]; 10.0 diol in potassium sorbate 30.0 / water 60.0, listed as 1-(2-ethylhexyloxy)glycerol ether): can dissolve
Appearance of the solution after stirring during 3h [4, 12]: clear
Appearance of the solution after stirring during 3h ([4]; 10.0 diol in potassium sorbate 45.0 / water 45.0, listed as 1-(2-ethylhexyloxy)glycerol ether): can dissolve
Appearance of solution after stirring during 3 h [4, 13]: 2 phases
Appearance of solution after stirring during 3 h ([4]; 10.0 diol in sodium benzoate 15.0 / water 75.0): 2 phases
Appearance of solution after stirring during 3 h [4, 14]: can dissolve; also recorded: clear
Appearance of solution after stirring during 3 h [4, 15]: can dissolve; also recorded: clear
Appearance of solution after stirring during 3 h [4, 16]: can dissolve; also recorded: clear
Appearance after stirring for 3 h [4, 17]: can dissolve neither; also recorded: not dissolved, 2 phases
Appearance after stirring for 3 h [4, 18]: not dissolved, 2 phases
Appearance after stirring for 3 h ([4]; 10.0 parts diol in sodium propionate 30.0 / fully demineralized water 60.0, listed as 1-(2-ethylhexyl)glycerol ether): can dissolve neither
Solubility [1]: 0.1%
Solubility of mixture A + diols [2]: clear solution

SMILES: CCCCCCCCCCCCOCC(O)CO (stereo not drawn) [1-dodecyl glycerol ether]
Solubility [1]: < 0.1%
Solubility of mixture A + diols [2]: clear solution

SMILES: OCC(O)CO [Glycerol (85%), Glycerol, reference compound]
surface tension (change against addition of 10 parts of water) [3]: not observed
Surface tension, 1% in water, mN/m [3]: 72.2 mN/m

SMILES: CC(O)CO (stereo not drawn) [Propylene glycol, reference compound]
surface tension (change against addition of 10 parts of water) [3]: not observed
Surface tension, 1% in water, mN/m [3]: 72.3 mN/m

SMILES: O [Water]
Surface tension, 1% in water, mN/m [3]: 71.9 mN/m

More lines, main results first:

Solubility [1]: < 0.1%
Solubility of mixture A + diols [2]: dissolve; also recorded: clear solution
SMILES: CCCCCCCCCCC(O)CO (stereo not drawn) [1,2-dodecanediol]

Solubility [1]: Unlimited
Solubility of mixture A + diols [2]: clear solution
SMILES: CCCCC(O)CO (stereo not drawn) [1,2-hexanediol]

surface tension (change against addition of 10 parts of water) [3]: significantly decreased
Surface tension, 1% in water, mN/m [3]: 44.7 mN/m
Appearance of solution after stirring during 3 h [4, 5]: 2 phases
Appearance of solution after stirring during 3 h [4, 6]: can dissolve; also recorded: clear
Appearance of the solution after stirring during 3h [4, 7]: 2 phases
Appearance of solution after stirring during 3 h [4, 8]: can dissolve; also recorded: clear
Appearance of the solution after stirring during 3h [4, 9]: can dissolve; also recorded: clear
Appearance of solution after stirring during 3 h [4, 10]: can dissolve; also recorded: clear
Appearance of the solution after stirring during 3h [4, 11]: can dissolve; also recorded: clear
Appearance of the solution after stirring during 3h [4, 12]: can dissolve; also recorded: clear
Appearance of solution after stirring during 3 h [4, 13]: 2 phases
Appearance of solution after stirring during 3 h [4, 14]: can dissolve; also recorded: clear
Appearance of solution after stirring during 3 h [4, 15]: can dissolve; also recorded: clear
Appearance of solution after stirring during 3 h [4, 16]: can dissolve; also recorded: clear
Solubility [1]: 0.7%
Solubility of mixture A + diols [2]: clear solution
SMILES: CCCCCCC(O)CO (stereo not drawn) [1,2-octanediol]
Appearance after stirring for 3 h [4, 17]: can dissolve neither; also recorded: not dissolved, 2 phases
Appearance after stirring for 3 h [4, 18]: can dissolve neither; also recorded: not dissolved, 2 phases
